Reference: patent US20130064794A1, “Substituted Carbonyloxymethylphosphoramidate Compounds and Pharmaceutical Compositions for the Treatment of Viral Infections” (IDENIX PHARMACEUTICALS, INC., priority 2011, published 2013)
Read-outs that look alike come from different tables or passages of the source.

Tests used:
HCV genotype 1b replicon = assay: microbe, parasite or virus in culture; type: cell-based; settings: read-out: HCV Replicon EC50
Protocol: Huh-7-derived cell line (Zluc) that harbors an HCV genotype 1b replicon and a luciferase reporter gene was grown in Dulbecco's Modified Eagle Medium (DMEM) supplemented with 10% fetal bovine serum, 2 mM GlutaMAX, 1% MEM nonessential amino acids, 100 IU/mL penicillin, 100 μg/mL streptomycin, and 0.5 mg/mL Geneticin® (G418). For dose response testing the cells were seeded in 96-well plates at 7.5×10^3 cells per well in a volume of 50 μL, and incubated at 37° C./5% CO2. Drug solutions were made up freshly in Huh-7 media as 2× stocks. Ten additional 5-fold dilutions were prepared from these stocks in DMEM without G418. At least three hours after Zluc cells were seeded, drug treatment was initiated by adding 50 μL of drug dilutions to the plates in duplicate. […] Cells were then incubated at 37° C./5% CO2. Alternatively compounds were tested at two concentrations (10 nM and 100 nM). […] For this, media was removed from the plates via gentle tapping. Fifty microliters of ONE-glo luciferase assay reagent was added to each well. […] The EC50 values were calculated from dose response curves from the resulting best-fit equations determined by Microsoft Excel and XLfit 4.1 software.

[1] = system: Zluc cells (Huh-7-derived cell line); assay: Cytotoxicity evaluation, CellTiter-Blue Cell Viability Assay; type: cell-based; settings: read-out: HCV Replicon CC50
Protocol: (§1) For cytotoxicity evaluation, Zluc cells were treated with compound as described above, and cell viability was monitored using the CellTiter-Blue Cell Viability Assay (Promega) by adding 20 μL of the assay solution to each well. The plates were then incubated at 37° C./5% CO2 for at least 3 hours.

[2] = Stability in human liver microsomes (HLM); type: in vitro ADME; settings: 10 μM, 1.0 mg/mL protein, NADPH, 60 min
Protocol: (§2) Stability of Compound 1 and its diastereomer were determined in subcellular fractions (microsomes and S9) of human liver and intestine in duplicate for each matrix. Pooled liver and intestinal microsomal, intestinal and liver S9 proteins (1.0 mg/mL), suspended in incubation buffer (100 mM potassium phosphate, pH 7.4, 5 mM MgCl2, and 0.1 mM EDTA), were preincubated for 5 min at 37° C. with 10 μM of a test compound from a 10 mM stock solution in DMSO (final DMSO concentration was 0.1%); the reaction was initiated by the addition of NADPH (3 mM final concentration). At specific times (0 and 60 min), 0.1 mL samples were taken and the reaction terminated by the addition of 4 volumes of stop solution (acetonitrile with 500 ng/mL carbutamide as an internal standard). The samples were vortexed for 30 sec and then centrifuged at 16,000 g for 10 min. 100 μL of supernatants were transferred to 96 deep-well plates preloaded with 100 μL distilled water and analyzed after mixing by LC-MS/MS. The MS peak area ratio of the test compound versus the internal standard was calculated and percent unchanged test compound over 60 minutes was calculated using this ratio.

[3] = Stability in human intestinal microsomes (HIM); type: in vitro ADME; settings: 10 μM, 1.0 mg/mL protein, NADPH, 60 min
Protocol: as §2

[4] = Stability in human liver S9 fraction (HLS9); type: in vitro ADME; settings: 10 μM, 1.0 mg/mL protein, NADPH, 60 min
Protocol: as §2

fresh human hepatocytes = assay: Release of active metabolite in fresh human hepatocytes; type: in vitro ADME; settings: intracellular triphosphate, 10 μM test compound
Protocol: (§3) Plates of fresh human and mouse hepatocytes were obtained on ice. The medium was removed and replaced with hepatocyte culture medium (William's E supplemented with penicillin-streptomycin, 1% L-glutamine, 1% insulin-transferrin-selenium and 0.1 μM Dexamethasone (Invitrogen) or with Invitro GRO HI medium complemented with Torpedo antibiotics (Celsis)). Cells were left overnight in an incubator at 37° C. to acclimatize to culture and the medium.
(§4) Hepatocyte incubations were conducted at a final volume of 0.5 mL hepatocyte culture medium/well (0.8 million cells/well for human and 0.5 million cells/well for mouse; 12 well plate no overlay, collagen coat). Culture medium from overnight incubation of cells was removed and replaced with fresh medium, pre-warmed to 37° C., containing 10 μM of the test compound from a stock solution in DMSO (final DMSO concentration was 0.1%). At each specific time point, incubation medium was removed and cell monolayers were carefully washed two times with ice-cold PBS. Following the last wash, all PBS was carefully removed and 1.0 mL of extraction solution (ice-cold 70% methanol/30% water) added. Cells were scraped off and suspended in the extraction solution, transferred to 2 mL polypropylene microfuge tubes and intracellular contents extracted overnight at −20° C.
(§5) After the overnight treatment the cellular extracts were prepared by centrifugation at 16,000×g for 10 min to remove cellular debris. The remaining sample was then dried using a refrigerated centrivap concentrator. Dry extracts were reconstituted in 1000 μL of HPLC-grade water and centrifuged at 16,000×g for 10 min. Aliquots (100 μL each) of the supernatant were transferred into a 96 well plate and 2′-C-methyl-adenosine 5′-triphosphate, trisodium salt (4 ng/mL final concentration) was added as the internal standard (1S) for LC-MS/MS analysis.
(§6) The incubation time points were 6, 24 and 48 hours for human hepatocytes and 1, 4, 8, 12 and 24 hours for mouse hepatocytes.

mouse hepatocytes = assay: Release of active metabolite in mouse hepatocytes; type: in vitro ADME; settings: 10 μM test compound
Protocol: as §3, §4, §5, §6

[5] = Cytotoxicity evaluation, CellTiter-Blue Cell Viability Assay; type: cell-based; settings: human, Zluc cells (Huh-7-derived cell line), read-out: HCV Replicon CC50
Protocol: as §1

Compound	EC50 (HCV genotype 1b replicon; Zluc cells, HCV genotype 1b replicon, luciferase, 72 hours of incubation) [µM]	CC50 [1] [µM]	Percent Remaining, HLM (1 hr) [2] [%]	Percent Remaining, HIM (1 hr) [3] [%]	Percent Remaining, HLS9 (1 hr) [4] [%]	FHH TP AUC (fresh human hepatocytes) [pmol.hr/mill cells]	FHH TP Cmax (fresh human hepatocytes) [pmol/mill cells]	MsH AUC (mouse hepatocytes) [pmol.hr/mill cells]	MsH Cmax (mouse hepatocytes) [pmol/mill cells]	EC50 (HCV genotype 1b replicon; Hepatitis C virus, 72 h) [µM]	CC50 [5] [µM]
CCOC(=O)OC(C)OP(=O)(N[C@@H](C)C(=O)OC(C)C)OC[C@H]1O[C@@H](n2cnc3c(OC)nc(N)nc32)[C@](C)(F)[C@@H]1O (single isomer, unassigned) [Compound 15]	< 0.1	> 50	0	54	0	4453	139	218	216	–	–
CCOC(=O)OC(C)OP(=O)(N[C@@H](C)C(=O)OC(C)C)OC[C@H]1O[C@@H](n2cnc3c(OC)nc(N)nc32)[C@](C)(F)[C@@H]1O (single isomer, unassigned) [Compound 14]	–	–	0	41	0.7	4006	155	8704	7534	< 0.1	> 50
